Laboratory results: patent US4027039A (priority 1975, dated 1977)
Like-named read-outs stand apart in the source and are kept apart here.

How the values were obtained:
[1] = test system: Influenza B Massachusetts virus; assay: Influenza B Mass. in mice, oral; late read day 5 (Table 39), 7 (Table 40), 11 (Tables 61, 65); control fraction 16/20 (Table 61), else 100%; type: in vivo, mouse
Experimental: A portion of a commercially available sample of amantadine was recrystallized from isopropanol. The activity of the material against Influenza B Mass. was tested for the sample as obtained, the recrystallized portion, and the mother liquor obtained from recrystallizing the portion.

Vaccinia virus = test system: Vaccinia virus; parameters: species or system fertile eggs; settings: various concentrations
Influenza PR 8 virus = assay: Influenza PR 8 in mice, oral; schedule by table; late read day 6 (Table 37), 7 (33, 36), 8 (32, 35, 47), 10 (38); control fraction 18/20 (Table 32), 19/20 (Table 35), else 100%; type: in vivo, mouse
Herpes virus [2] = test system: Herpes virus
[3] = test system: Influenza, Ann Arbor virus; assay: Influenza Ann Arbor in mice, subcutaneous; late read day 9 (Table 11), 7 (Tables 12, 14), 5 (Table 13); type: in vivo, mouse; settings: total dose .05 μg
Herpes virus [4] = assay: Herpes virus in chicken eggs, single dose 24 hours pre-infection; type: in vivo, chick embryo
Influenza A PR8 virus = test system: Influenza A PR8 virus; parameters: toxicity at upper limit: dose or concentration left out as unconfirmed; settings: cited from earlier work

NNC(N)=O [semicarbazide]
10: Total deaths, 4th day (Herpes virus [4]; 2 μg) | Total no. living longer than controls (Herpes virus [4]; all doses)
11: Total deaths, 4th day (Herpes virus [4]; 20 μg) | Total deaths, 4th day (Herpes virus [4]; .00005 μg) | Total deaths, 4th day (Herpes virus [4]; .0005 μg) | Total deaths, 4th day (Herpes virus [4]; .05 μg)
6: No. animals surviving after 5 days (Table 61: 11 days) ([1]; total dose .005 μg (5 ng)) | No. animals surviving after 5 days (Table 61: 11 days) ([1]; total dose .05 μg (50 ng)) | Deaths on day 3 (Herpes virus [4]; .0005 μg) | Deaths on day 3 (Herpes virus [4]; .05 μg)
50%: animals protected (Herpes virus [2]; no pre-treatment, one dose level)
0: No. animals surviving when 100% (Table 61: 16/20) of controls are dead ([1]; total dose .000005 μg (5 pg)) | Survivors ([1]; total dose .000005 μg (5 pg)) | No. animals surviving when 100% (Table 61: 16/20) of controls are dead ([1]; total dose .00005 μg (50 pg)) | Survivors ([1]; total dose .00005 μg (50 pg)) | Survivors ([1]; total dose .0005 μg (500 pg)) | Survivors ([1]; total dose .005 μg (5 ng)) | Survivors ([1]; total dose .05 μg (50 ng)) | Survivors ([1]; total dose .5 μg (500 ng)) | Survivors (Influenza PR 8 virus; total dose .000005 μg) | No. animals surviving when 100% (or given fraction) of controls are dead (Influenza PR 8 virus; total dose .00005 μg) | Survivors (Influenza PR 8 virus; total dose .00005 μg) | No. animals surviving when 100% (or given fraction) of controls are dead (Influenza PR 8 virus; total dose .0005 μg) | Survivors (Influenza PR 8 virus; total dose .0005 μg) | No. animals surviving when 100% (or given fraction) of controls are dead (Influenza PR 8 virus; total dose .005 μg) | Survivors (Influenza PR 8 virus; total dose .005 μg) | No. animals surviving when 100% (or given fraction) of controls are dead (Herpes virus [2]; total dose .0005 μg) | No. animals surviving after 5-9 days [3] | No. dying 5-22 day (Herpes virus [4]; 2 μg) | No. living longer than controls (Herpes virus [4]; 2 μg) | No. dying 5-22 day (Herpes virus [4]; 20 μg) | No. dying 5-22 day (Herpes virus [4]; .0005 μg) | No. dying 5-22 day (Herpes virus [4]; .05 μg)
5: No. animals surviving after 6-9 days (Herpes virus [2]; total dose .00005 μg) | No. animals surviving when 100% (or given fraction) of controls are dead (Herpes virus [2]; total dose .00005 μg) | No. animals surviving after 6-9 days (Herpes virus [2]; total dose .05 μg) | Deaths on day 3 (Herpes virus [4]; 20 μg) | Deaths on day 3 (Herpes virus [4]; .5 μg)
3: No. animals surviving when 100% (Table 61: 16/20) of controls are dead ([1]; total dose .005 μg (5 ng))
No effect: effect on pox formation on the membrane (Vaccinia virus)
20 to 30%: animals survived (Herpes virus [2]; mouse, in vivo)
1: No. animals surviving when 100% (Table 61: 16/20) of controls are dead ([1]; total dose .0005 μg (500 pg)) | No. animals surviving when 100% (Table 61: 16/20) of controls are dead ([1]; total dose .05 μg (50 ng)) | No. animals surviving when 100% (Table 61: 16/20) of controls are dead ([1]; total dose .5 μg (500 ng)) | Deaths on day 2 (Herpes virus [4]; 20 μg) | No. living longer than controls (Herpes virus [4]; 20 μg) | No. dying 5-22 day (Herpes virus [4]; .00005 μg) | No. living longer than controls (Herpes virus [4]; .00005 μg) | Deaths on day 4 (Herpes virus [4]; .0005 μg) | No. hatched (Herpes virus [4]; .0005 μg) | No. living longer than controls (Herpes virus [4]; .0005 μg) | No. hatched (Herpes virus [4]; .005 μg) | Deaths on day 1 (Herpes virus [4]; .05 μg) | No. living longer than controls (Herpes virus [4]; .05 μg)
7: No. animals surviving after 6-9 days (Herpes virus [2]; total dose 5 μg) | Total deaths, 4th day (Herpes virus [4]; .005 μg)
9: Total deaths, 4th day (Herpes virus [4]; .5 μg)
4: Deaths on day 1 (Herpes virus [4]; .00005 μg) | Deaths on day 3 (Herpes virus [4]; .00005 μg) | No. living longer than controls (Herpes virus [4]; .005 μg) | Deaths on day 2 (Herpes virus [4]; .05 μg)

CC(C=NNC(=N)N)=NNC(=N)N [Methylgloxal-bis-guanylhydrazone]
toxic: toxicity at upper limit (Influenza A PR8 virus)
Ninety: inhibition (Influenza A PR8 virus; lower limit, 0.125 mg per ml)
